For one molecule, MIC results are on record in patent US5459260A, “Tricyclic or tetracyclic carbapenem compounds, their production and use” (Takeda Chemical Industries, Ltd., priority 1991, dated 1995).

Each structure is given as a SMILES string. ≈ marks a conversion by molar mass, not a printed value.

Common to all, as to test: MIC by the agar dilution method
Holding throughout (assay type): cell-based

Experiment [1] has as its system S. aureus FDA 209P. Conditions: Staphylococcus aureus, FDA209P, 10^8 CFU/ml, Trypticase soy agar, 37° C. overnight. On the procedure: (§1) The MICs of the test compound were determined by the agar dilution method. Thus, 1.0 ml portions of serially diluted aqueous solutions of the test compound were poured in petri dishes and admixed with 9.0 ml portions of Trypticase soy agar. Then, a suspension (about 10^8 CFU/ml) of each test strain was smeared on each agar plate and incubated at 37° C. overnight. The lowest concentration of the test compound inhibiting growth of the test strain 100% was regarded as the minimal inhibitory concentration, MIC.

The test system of experiment [2] is E. coli NIHJ JC-2. The following applies: Escherichia coli, NIHJJC2, 10^8 CFU/ml, Trypticase soy agar, 37° C. overnight. On the procedure: as §1
Experiment [3] concerns E. coli NIHJ O-111. Conditions: Escherichia coli, NIHJO111, 10^8 CFU/ml, Trypticase soy agar, 37° C. overnight. As for the experimental part:
as §1

Experiment [4] deals with E. coli NIHJ T-7. Conditions: Escherichia coli, NIHJT7, 10^8 CFU/ml, Trypticase soy agar, 37° C. overnight. As for the experimental part: as §1
Experiment [5] relates to S. mitis America. The following applies: Streptococcus mitis, 10^8 CFU/ml, Trypticase soy agar, 37° C. overnight. On the procedure:
as §1

Experiment [6] relates to S. marcescens IFO 12648. The following applies: Serratia marcescens, IFO12648, 10^8 CFU/ml, Trypticase soy agar, 37° C. overnight. On the procedure: as §1
Experiment [7] has as its system S. pyogenes E-14. The following applies: Streptococcus pyogenes, E14, 10^8 CFU/ml, Trypticase soy agar, 37° C. overnight. On the procedure:
as §1

Experiment [8] deals with M. morganii IFO 3168. The following applies: Morganella morganii, IFO3168, 10^8 CFU/ml, Trypticase soy agar, 37° C. overnight. As for the experimental part:
as §1

Experiment [9] relates to S. aureus 1840. Conditions: Staphylococcus aureus, 10^8 CFU/ml, Trypticase soy agar, 37° C. overnight. On the procedure:
as §1

The subject of experiment [10] is E. cloacae TN 583. Conditions: Enterobacter cloacae, TN583, 10^8 CFU/ml, Trypticase soy agar, 37° C. overnight. On the procedure:
as §1

Experiment [11] deals with S. pyogenes S-8. The following applies: Streptococcus pyogenes, S8, 10^8 CFU/ml, Trypticase soy agar, 37° C. overnight. On the procedure: as §1
The subject of experiment [12] is S. aureus 308A-1. Conditions: Staphylococcus aureus, 308A1, 10^8 CFU/ml, Trypticase soy agar, 37° C. overnight. As for the experimental part: as §1
Experiment [13] relates to K. oxytoca TN 1711. The following applies: Klebsiella oxytoca, TN1711, 10^8 CFU/ml, Trypticase soy agar, 37° C. overnight. On the procedure:
as §1

The subject of experiment [14] is C. diphtheriae Tronto. The following applies: Corynebacterium diphtheriae, 10^8 CFU/ml, Trypticase soy agar, 37° C. overnight. As for the experimental part: as §1
The subject of experiment [15] is K. pneumoniae DT. Conditions: Klebsiella pneumoniae, 10^8 CFU/ml, Trypticase soy agar, 37° C. overnight. On the procedure: as §1
Experiment [16] relates to C. freundii TN 474. Conditions: Citrobacter freundii, TN474, 10^8 CFU/ml, Trypticase soy agar, 37° C. overnight. On the procedure:
as §1

The subject of experiment [17] is P. mirabilis IFO 3849. The following applies: Proteus mirabilis, IFO3849, 10^8 CFU/ml, Trypticase soy agar, 37° C. overnight. On the procedure: as §1
For experiment [18], the system named is E. cloacae IFO 12937. Conditions: Enterobacter cloacae, IFO12937, 10^8 CFU/ml, Trypticase soy agar, 37° C. overnight. On the procedure:
as §1

Experiment [19] has as its system C. freundii IFO 12681. The following applies: Citrobacter freundii, IFO12681, 10^8 CFU/ml, Trypticase soy agar, 37° C. overnight. On the procedure:
as §1

The subject of experiment [20] is P. vulgaris IFO 3988. Conditions: Proteus vulgaris, IFO3988, 10^8 CFU/ml, Trypticase soy agar, 37° C. overnight. On the procedure: as §1
The test system of experiment [21] is S. pneumoniae Type I. Conditions: Streptococcus pneumoniae, 10^8 CFU/ml, Trypticase soy agar, 37° C. overnight. On the procedure: as §1

Usually MIC stands for the smallest concentration in the dilution series that meets the test's criterion for growth inhibition. Low readings indicate a more susceptible organism, high ones a less susceptible organism.

As for `C[C@@H](O)[C@H]1C(=O)N2C(C(=O)O)=C3[C@@H](CCO)CCO[C@@H]3[C@H]12` [Example 19], the MIC in experiment [1] was less than 0.1 µg/mL; in [2], less than 0.1 µg/mL; in experiment [3] it was less than 0.1 µg/mL; in experiment [4] it was 1.56 µg/mL (≈ 5.25 µM); in [5], less than 0.1 µg/mL; in experiment [6], 0.78 µg/mL (≈ 2.62 µM). The MIC in experiment [7] was less than 0.1 µg/mL; in [8] it was 0.78 µg/mL (≈ 2.62 µM); in experiment [9] it was 0.2 µg/mL (≈ 0.673 µM); in experiment [10], 12.5 µg/mL (≈ 42 µM); in experiment [11], less than 0.1 µg/mL; in [12], less than 0.1 µg/mL. Further, the MIC in experiment [13] turned out to be 1.56 µg/mL (≈ 5.25 µM); in experiment [14], 0.2 µg/mL (≈ 0.673 µM); in [15], 0.2 µg/mL (≈ 0.673 µM); in experiment [16] it was 6.25 µg/mL (≈ 21 µM); in experiment [17], 0.39 µg/mL (≈ 1.31 µM); in experiment [18], 6.25 µg/mL (≈ 21 µM). Besides, the minimum inhibitory concentration (MIC) in [19] was 0.2 µg/mL (≈ 0.673 µM); in experiment [20], 0.78 µg/mL (≈ 2.62 µM); in [21] it was less than 0.1 µg/mL.
